# Results from patent US20250188032A1, “NITROGEN-CONTAINING HETEROCYCLIC COMPOUNDS AND USES THEREOF” (BNH RESEARCH CO., LTD., priority 2022, published 2025).
# B1: BDNF: brain-derived neurotrophic factor applied to the mice barrel cortex using Alzet osmotic pump (protein, UniProt P23560 19-247, looked up)
# Neurotrophic factor BDNF …: APMKEANIRGQGGLAYPGVRTHGTLESVNGPKAGSRGLTSLADTFEHVIEELLDEDQKVRPNEENNKDADLYTSRVMLSSQVPLEPPLLFLLEEYKNYLDAANMSMRVRRHSDPARRGELSVCDSISEWVTAADKKTAVDMSGGTVTVLEKVPVSKGQLKQYFYETKCNPMGYTKEGCRGIDKRHWNSQCRTTQSYVRALTMDSKKRIGWRFIRIDTSCVCTLTIKRGR
# Tested on: C57BL/6J mice barrel cortex (layer 4)
# Test: Synaptic function test: TC EPSC potency and GABA/AMPA ratio in barrel cortex (layer 4)
# Assay type: in vivo
# Source text: Eight weeks old male C57BL/6J mice were anesthetized with isoflurane during surgery. The mice were then be placed in a stereotaxic frame (RWD Life Science, China). The parietal and the frontal bones were exposed by a sagittal incision of the scalp at the midline from the level of the eyes to the occipital protuberance. A small burr hole was drilled after exposing the skull. The injection cannula was placed at the following coordinates: (Mouse: Bregma −3.30, lateral −1.50, and ventral 0.7 mm). Sterile saline solution (+/−a compound of the present disclosure) was perfused at a constant flow rate of 0.5 μL/h through the injection cannula using a mini-Os pump (DURECT Corporation ALZET Osmotic Pumps, CA). Implantation was done in layer 4 of the barrel cortex ipsilateral. To estimate extent of the diffusion of the injected compound in layer 4 barrel cortex during pump injection, methylene blue was first injected to stain the diffusion area. On average methylene blue diffused to […] away from the injection site (the total area of the barrel cortex region is about 1500 μm). Based on this analysis, the present inventors recorded from barrel cortex area.
# 2 mg of BnH12001 was dissolved in 800 ul of DMSO and prepared as a stock solution. For oral administration, BnH12001 DMSO stock:PEG400:Saline was mixed in a ratio of 5:55:40 and 200 μl/animal was administered. For the control group, a vehicle in which DMSO:PEG400:Saline was mixed in a 5:55:40 ratio was administered at 200 ul/animal. In the single drug administration test, the compound was administered once a day for about 11 to 12 days at a dose of 1 mg/kg. Dose response test was performed by administering the compound once a day for about 11 to 12 days at doses of 0.03, 0.1, 0.3, 1, 3, and 10 mg/kg. 5 mice were used for the compound administration group and the control group, respectively.
# For TC or hippocampus slice preparation. 9 to 10 weeks-old male C57BL/6J mice were anesthetized with isoflurane. Then, the brain was rapidly cooled via transcardial perfusion with ice-cold sucrose-artificial cerebrospinal fluid (aCSF). The brain was removed and placed in ice-cold sucrose aCSF. Paracoronal slices were prepared at an angle of 50° relative to the midline on a ramp at an angle of 10°. Then, slices were incubated in aCSF at 35° C. for 30 minutes to recover. Slices were then incubated in aCSF at room temperature (23 to 25° C.) for 1 to 4 hours before being placed in the recording chamber for experiments. The standard aCSF contains saturated with 95% O2/5% CO2. The brain of the mouse was removed and cut into 400 μm at a 50° angle (mouse at a 55° angle) to attach the cut portion to the vibratome disc to be the bottom. Brain slice was incubated in 35° C. in aCSF solution for 30 minutes, or at RT in aCSF solution for 1 hour.
# All electrophysiological experiments were conducted at 27 to 29° C. For electrophysiological experiments, electrodes with […] resistance were used and stimuli were applied to the ventral posteromedial nucleus (VPM) using a concentric bipolar electrode (FHC, Bowdoin, ME). The somatosensory cortex was identified by the presence of barrels under 4× magnification and differential interference contrast (DIC) optics, and by the ability to evoke short and constant latency field excitatory postsynaptic potentials (fEPSPs) by VPM stimulation. Whole-cell voltage-clamp recordings were made from stellate cells (SC) in layer IV of the somatosensory barrel cortex using infrared illumination and differential interference contrast (DIC) optics. The composition of whole cell recording solution is shown as follows:
# Whole cell recordings were made using a multiclamp 700A (Molecular devices, Sunnyvale, CA) digitized at 10 kHz and filtered at 2 kHz. […]
# [1] = oral, 1 mg/kg, 8-week-old C57BL/6J mice
# [2] = applied to the mice barrel cortex using Alzet osmotic pump
molecule,measurement,setting,value
"C[C@H]1CC[C@@H](C(=O)O)CN1C(=O)Cc1ccc(F)cc1Cl [BnH12001 enantiomer (3R,6S, 98%<), (3R,6S)-1-(2-(2-chloro-4-fluorophenyl)acetyl)-6-methylpiperidine-3-carboxylic acid]",Balance of excitation/inhibition (GABA/AMPA ratio),[1],maintaining the balance of excitation/inhibition
same,Efficacy on TC synaptic potency compared among racemate and enantiomers,[1],better efficacy than the racemate
same,TC synaptic potency in the sensory cortex,[1],increase the TC synaptic potency
cyclotraxin B [reference compound],BDNF-induced augmentation of TC EPSC potency,cyclotraxin B 1 μM application,almost completely prevented
same,BnH12001-induced increase of TC EPSC potency,cyclotraxin B 1 μM application,nearly completed hindered
B1,IPSC/EPSC ratio,[2],without alteration
same,TC EPSC potency,[2],significantly increased
